Reference: US12649768B2, “Recombinant expression vector for high expression of brazzein in Saccharomyces cerevisiae and method for mass-production of brazzein using the same” (CHUNG-ANG UNIVERSITY INDUSTRY-ACADEMIC COOPERATION …, priority 2021, dated 2026)
No end group written: not given here.

How the values were obtained:
[1] = Brazzein sweetness activity by ascending taste test with a trained human panel; type: in vivo, humans; conditions: threshold concentration at which sweetness is first felt, 500 μl samples tasted from low to high concentration
Description: Since brazzein is a protein rather than a sugar, it is not possible to measure sweetness using a saccharimeter. Therefore, the activity was measured using a taste test that measures the activity of brazzein by allowing humans to directly taste brazzein. First, brazzein was dissolved in distilled water such that the final concentration was 1.0 mg/mL, samples were prepared by varying the test concentration so as to be 30 to 0.05 ng/mL, a threshold value for feeling the sweetness for the first time was obtained by tasting the sweetness of the solution, […] The specific activity measurement method was performed as follows.
A panel of a total of 20 males and 10 females trained in the sweetness test was configured. Prior to the activity measurement, the subjects were informed of the test date and time in advance to sample the taste in their best conditions, and were prohibited from drinking alcohol on the day before the test and eating food, smoking, and the like immediately before the test. The subjects trained in advance rinsed their mouths with prepared secondary distilled water and obtained the concentration at which the sweetness was first felt while sampling the taste of 500 μl of each sample according to the concentration of each type in the order of low concentration to high concentration. […]

[2] = versus 2% sugar solution, cited from earlier work

Row | Substance | sweetness activity relative to the same mass of sucrose [1] | sweetness relative to a 2% sugar solution, on a molar basis ([2]; molar basis) [fold] | sweetness relative to a 2% sugar solution, on a molecular weight basis ([2]; molecular weight basis)
1 | K. lactis wild-type brazzein: wild-type brazzein expressed in K. lactis, used as the sweetness comparison (QDKCKKVYENYPVSKCQLANQCNYDCKLDKHARSGECFYDEKRNLQCICDYCEY; ends and bridges not checked; cysteine pairing not given here; UniProt P56552 1-54, looked up) [reference compound] | 2,309 (±6.8%) fold | – | –
2 | S. cerevisiae wild-type brazzein: wild-type brazzein (SEQ ID NO: 3) secreted and expressed in Saccharomyces cerevisiae with the pESC-Brazzein vector (DKCKKVYENYPVSKCQLANQCNYDCKLDKHARSGECFYDEKRNLQCICDYCEY) | about 2,260 (±5.9%) fold | – | –
3 | Brazzein: natural sweet protein of 54 amino acid residues, 6.5 kDa, from the fruit of Pentadiplandra brazzeana Baillon (QDKCKKVYENYPVSKCQLANQCNYDCKLDKHARSGECFYDEKRNLQCICDYCEY; UniProt P56552 1-54, looked up) | – | ~9500 | about 2000 fold
